Patent US20090209613A1, “Use of allymercaptocaptopril for treating or preventing obesity and obesity related diseases” (Yeda Researc And Development Co. Ltd. at the Weizmann …, priority 2005, published 2009)

How the values were obtained:
[1] = Body weight gain of SHROB rats fed drug-supplemented chow; assay type: in vivo, rat; conditions: for effect on body weight gain: compared with non-treated control, FIG. 1
Protocol: (§1) Animals: Obese spontaneously […] rats with a naturally occurring knockout of the leptin receptor (SHROB; Koletsky et al., pp. 143-158 in: Sima AAF and Shafrir (eds) Animal Models of Diabetes: A Primer, Harwood, Singapore, 2001) were used. Adult (4-5 months old) male and female SHROB were maintained essentially as described by Velliquette and Emsberger (JPET 307: 1104-1111, 2003). Briefly, animals were housed individually at a constant temperature of 21° C. on a 12:12 hours light/dark cycle. The animals were given ad libitum access to food (Teklad 8664 rat chow) and were maintained for a period of 60 days. The procedures were carried out in accordance with applicable laws and accepted guidelines for animal welfare.
(§2) Either CPSSA or captopril were dissolved in a 20% ethanol solution, chilled on ice, and were then thoroughly mixed with powdered rat chow in equivalent molar amounts of 1.107 and 0.827 gram/kg, respectively.
(§3) Eight SHROB rats (4 males, 4 females) were used in each treatment group. Animals were fed with chow supplemented with either CPSSA or captopril, or with standard (non-supplemented) chow diet, which served as a control. Measurements of body weight, food consumption and blood pressure were conducted 3 times a week for the duration of the experiment.

[2] = Systolic blood pressure of SHROB rats fed drug-supplemented chow; assay type: in vivo, rat
Protocol: Briefly, animals were housed individually at a constant temperature of 21° C. on a 12:12 hours light/dark cycle. […] The procedures were carried out in accordance with applicable laws and accepted guidelines for animal welfare.
as §3

[3] = Food consumption of SHROB rats fed drug-supplemented chow; assay type: in vivo, rat; conditions: throughout the experiment, FIG. 2
Protocol: as §1, §2, §3

[4] = in vivo; cited from earlier work
[5] = cited from earlier work
[6] = day 20, drug in chow ad libitum
[7] = day 53, drug in chow ad libitum

Structure (SMILES) | effect on body weight gain [1] | average body weight gain [1, 6] [%] | average body weight gain [1, 7] [%] | effect on blood pressure ([2]; FIG. 3) | average systolic blood pressure ([2]; day 14) | average systolic blood pressure ([2]; day 28) | average systolic blood pressure ([2]; day 56) | food uptake [3] | blood pressure [4] | serum level of insulin [4] | serum level of triglycerides [4] | stability in blood or plasma ([5]; blood or plasma of mammals) | reaction with serum proteins ([5]; serum proteins)
C=CCSSC[C@H](C)C(=O)N1CCC[C@H]1C(=O)O [CPSSA, Allylmercaptocaptopril] | effectively prevented body weight gain | 0.6 | −0.1 | substantially reduced the blood pressure | 165.6 | 146.8 | 140.3 | no differences were observed in the food uptake | significantly decreases blood pressure | reduces | reduces | stable in blood or plasma of mammals | reacts very sluggishly with serum proteins
C[C@H](CS)C(=O)N1CCC[C@H]1C(=O)O [captopril] | had no effect on body weight gain | 7.3 | 11.8 |  | 165.5 | 159.3 | 159.7 | no differences were observed in the food uptake |  |  |  |  | 
